# Read-outs that look alike come from different tables or passages of the source.
# How the values were obtained:
# [1] = system: P. falciparum 3D7 parasites; test: P. falciparum growth inhibition assay, 1-cycle (72 h treatment), SYBR DNA staining (library screen at 2 μg/mL and dose-response); assay type: cell-based, Plasmodium falciparum; conditions: for activity at 2 µg/mL: Plasmodium falciparum, 3D7
# [2] = system: T. gondii RH strain (RH-Tub-eYFP) tachyzoites; test: microbe, parasite or virus in culture; assay type: cell-based, Toxoplasma gondii; conditions: 72 h; for percent parasite growth at 2 µg/mL: Toxoplasma gondii
# [3] = system: P. falciparum 3D7 parasites; test: P. falciparum growth inhibition assay, 2-cycle (120 h treatment), delayed-death screen and dose-response; assay type: cell-based, Plasmodium falciparum; conditions: for activity at 2 µg/mL: Plasmodium falciparum, 3D7
# [4] = P. falciparum 3D7, 72 h, parasite screen at 2 μg/mL, % growth, replicate 1
# [5] = P. falciparum 3D7, 72 h, parasite screen at 2 μg/mL, % growth, replicate 2
# [6] = T. gondii, parasite screen at 2 μg/mL, % growth, replicate 1
# [7] = T. gondii, parasite screen at 2 μg/mL, % growth, replicate 2
# [8] = P. falciparum 3D7, 120 h, parasite screen at 2 μg/mL, % growth, replicate 1
# [9] = P. falciparum 3D7, 120 h, parasite screen at 2 μg/mL, % growth, replicate 2
# [10] = library screen at 2 μg/mL, 72 h, % growth, replicate 1
# [11] = library screen at 2 μg/mL, 72 h, % growth, replicate 2
# [12] = library screen at 2 μg/mL, % growth, replicate 1
# [13] = library screen at 2 μg/mL, % growth, replicate 2
# [14] = library screen at 2 μg/mL, 120 h, % growth, replicate 1
# [15] = library screen at 2 μg/mL, 120 h, % growth, replicate 2
# [16] = P. falciparum, 72 h, screen at 2 μg/mL, replicate 1
# [17] = P. falciparum, 72 h, screen at 2 μg/mL, replicate 2
# [18] = T. gondii, screen at 2 μg/mL, replicate 1
# [19] = T. gondii, screen at 2 μg/mL, replicate 2
# [20] = P. falciparum, 120 h, screen at 2 μg/mL, replicate 1
# [21] = P. falciparum, 120 h, screen at 2 μg/mL, replicate 2
smiles,measurement,setting,value
OC[C@H]1O[C@@H](n2cnc3c2N=CNC[C@H]3O)C[C@@H]1O [BIA-P1273],Pf_72h_%Growth_Rep1,[1]; [4],69.65%
same,Pf_72h_%Growth_Rep2,[1]; [5],72.25%
same,Tg_72h_%Growth_Rep1,[2]; [6],120.62%
same,Tg_72h_%Growth_Rep2,[2]; [7],91.66%
same,Pf_120h_%Growth_Rep1,[3]; [8],57.41%
same,Pf_120h_%Growth_Rep2,[3]; [9],140.11%
O=C1NCc2nc3ccccc3c(=O)n2-c2ccccc21 [Sclerotigenin],activity at 2 µg/mL,"[1]; P. falciparum, 72 h, parasite screen 2 μg/mL, % growth, replicate 1, read-out: Pf_72h_%Growth_Rep1",90.7%
same,activity at 2 µg/mL,"[1]; P. falciparum, 72 h, parasite screen 2 μg/mL, % growth, replicate 2, read-out: Pf_72h_%Growth_Rep2",89.5%
same,percent parasite growth at 2 µg/mL,"[2]; T. gondii, parasite screen 2 μg/mL, % growth, replicate 1, read-out: Tg_72h_%Growth_Rep1",82%
same,percent parasite growth at 2 µg/mL,"[2]; T. gondii, parasite screen 2 μg/mL, % growth, replicate 2, read-out: Tg_72h_%Growth_Rep2",103%
same,activity at 2 µg/mL,"[3]; P. falciparum, 120 h, parasite screen 2 μg/mL, % growth, replicate 1, read-out: Pf_120h_%Growth_Rep1",169%
same,activity at 2 µg/mL,"[3]; P. falciparum, 120 h, parasite screen 2 μg/mL, % growth, replicate 2, read-out: Pf_120h_%Growth_Rep2",96.5%
CC(C)=CC1CC(C)C2(CCC3(C)CC4C(C(=O)CC4(C)O)C(C=O)=CCC32)O1 (stereo not drawn) [BIA-O1063],Pf_72h_%Growth_Rep1,[1]; [4],4.64%
same,Pf_72h_%Growth_Rep2,[1]; [5],5.89%
same,Tg_72h_%Growth_Rep1,[2]; [6],5.87%
same,Tg_72h_%Growth_Rep2,[2]; [7],0.78%
same,Pf_120h_%Growth_Rep1,[3]; [8],10.48%
same,Pf_120h_%Growth_Rep2,[3]; [9],11.00%
COc1cc2c3c(c1O)-c1c(cc(O)c(OC)c1OC)CCC3N(C)CC2 (stereo not drawn) [Floramultine],Pf_72h_%Growth_Rep1,[1]; [10],85.55%
same,Pf_72h_%Growth_Rep2,[1]; [11],120.01%
same,Tg_72h_%Growth_Rep1,[2]; [12],115.84%
same,Tg_72h_%Growth_Rep2,[2]; [13],93.93%
same,Pf_120h_%Growth_Rep1,[3]; [14],85.60%
same,Pf_120h_%Growth_Rep2,[3]; [15],101.00%
NC(=O)C=Cc1ccccc1 [Cinnamamide],activity at 2 µg/mL,"[1]; P. falciparum, 72 h, screen at 2 μg/mL, replicate 1, read-out: Pf_72h_%Growth_Rep1",95%
same,activity at 2 µg/mL,"[1]; P. falciparum, 72 h, screen at 2 μg/mL, replicate 2, read-out: Pf_72h_%Growth_Rep2",81.9%
same,percent parasite growth at 2 µg/mL,[2]; read-out: Tg_72h_%Growth_Rep1,85.6%
same,percent parasite growth at 2 µg/mL,[2]; read-out: Tg_72h_%Growth_Rep2,87.3%
same,activity at 2 µg/mL,"[3]; P. falciparum, 120 h, screen at 2 μg/mL, replicate 1, read-out: Pf_120h_%Growth_Rep1",152%
same,activity at 2 µg/mL,"[3]; P. falciparum, 120 h, screen at 2 μg/mL, replicate 2, read-out: Pf_120h_%Growth_Rep2",94.1%
CC[C@H]1OC(=O)[C@H](C)[C@@H](O[C@H]2C[C@@](C)(OC)[C@@H](O)[C@H](C)O2)[C@H](C)[C@@H](O[C@@H]2O[C@H](C)C[C@H](N(C)C)[C@H]2O)[C@](C)(O)C[C@@H](C)C(=NO)[C@H](C)[C@@H](O)[C@]1(C)O [Erythromycin A oxime],Pf_72h_%Growth_Rep1,[1]; [10],85.19%
same,Pf_72h_%Growth_Rep2,[1]; [11],75.74%
same,Tg_72h_%Growth_Rep1,[2]; [12],42.42%
same,Tg_72h_%Growth_Rep2,[2]; [13],49.55%
same,Pf_120h_%Growth_Rep1,[3]; [14],78.37%
same,Pf_120h_%Growth_Rep2,[3]; [15],65.13%
COc1ccc(C[C@H]2NC[C@H](O)[C@H]2O)cc1 [Deacetylanisomycin],Pf_72h_%Growth_Rep1,[1]; [16],64.17%
same,Pf_72h_%Growth_Rep2,[1]; [17],43.98%
same,Tg_72h_%Growth_Rep1,[2]; [18],5.55%
same,Tg_72h_%Growth_Rep2,[2]; [19],18.56%
same,Pf_120h_%Growth_Rep1,[3]; [20],36.01%
same,Pf_120h_%Growth_Rep2,[3]; [21],30.23%
CCCCC(C)C=C(C)C=C(C)C(=O)NC1=CC(O)(C=CC=CC=CC(=O)NC2=C(O)CCC2=O)C2OC2C1=O (stereo not drawn) [BIA-M1905],Pf_72h_%Growth_Rep1,"[1]; P. falciparum 3D7, 72 h, library screen at 2 μg/mL, % growth, replicate 1",81.84%
same,Pf_72h_%Growth_Rep2,"[1]; P. falciparum 3D7, 72 h, library screen at 2 μg/mL, % growth, replicate 2",57.54%
same,Tg_72h_%Growth_Rep1,"[2]; T. gondii RH, library screen at 2 μg/mL, % growth, replicate 1",110.20%
same,Tg_72h_%Growth_Rep2,"[2]; T. gondii RH, library screen at 2 μg/mL, % growth, replicate 2",85.96%
same,Pf_120h_%Growth_Rep1,"[3]; P. falciparum 3D7, 120 h, library screen at 2 μg/mL, % growth, replicate 1",83.56%
same,Pf_120h_%Growth_Rep2,"[3]; P. falciparum 3D7, 120 h, library screen at 2 μg/mL, % growth, replicate 2",90.34%
CN[C@H]1C(=O)N[C@@H]2Cc3ccc(cc3)Oc3cc4cc(c3O[C@@H]3O[C@H](C(=O)O)[C@@H](O)[C@H](O)[C@H]3NC(=O)CCCCCCCCC(C)C)Oc3ccc(cc3Cl)[C@@H](O)[C@@H]3NC(=O)[C@H](NC(=O)[C@@H]4NC(=O)[C@@H](NC2=O)c2cc(cc(O)c2Cl)Oc2cc1ccc2O)c1ccc(O)c(c1)-c1c(O[C@H]2O[C@H](CO)[C@@H](O)[C@H](O)[C@@H]2O)cc(O)cc1[C@@H](C(=O)NCCCN(C)C)NC3=O [Dalbavancin],Pf_72h_%Growth_Rep1,[1]; [16],84.83%
same,Pf_72h_%Growth_Rep2,[1]; [17],84.70%
same,Tg_72h_%Growth_Rep1,[2]; [18],148.88%
same,Tg_72h_%Growth_Rep2,[2]; [19],101.28%
same,Pf_120h_%Growth_Rep1,[3]; [20],61.95%
same,Pf_120h_%Growth_Rep2,[3]; [21],91.53%

# — PMC12396409, “Screening and hit evaluation of a microbial metabolite library against the pathogenic Plasmodium falciparum and Toxoplasma gondii parasites” (International Journal for Parasitology: Drugs and Drug …, 2025)
